# Reference: patent US20240109917A1 (ACTELION PHARMACEUTICALS LTD, priority 2020, published 2024)
# Columns and labels:
# [1] = target: Tb-labeled inactive PDGFRβ (Homo sapiens (Human), UniProt P09619); assay: PDGFRβ LanthaScreen Assay; assay type: binding; details: read-out: PDGFR Lantha IC50
# [2] = target: VEGFR2, unphosphorylated (Homo sapiens (Human), UniProt P35968); assay: VEGFR ADP GLO Assay; assay type: biochemical
# Sequence of VEGFR2, unphosphorylated (P35968 20-1356): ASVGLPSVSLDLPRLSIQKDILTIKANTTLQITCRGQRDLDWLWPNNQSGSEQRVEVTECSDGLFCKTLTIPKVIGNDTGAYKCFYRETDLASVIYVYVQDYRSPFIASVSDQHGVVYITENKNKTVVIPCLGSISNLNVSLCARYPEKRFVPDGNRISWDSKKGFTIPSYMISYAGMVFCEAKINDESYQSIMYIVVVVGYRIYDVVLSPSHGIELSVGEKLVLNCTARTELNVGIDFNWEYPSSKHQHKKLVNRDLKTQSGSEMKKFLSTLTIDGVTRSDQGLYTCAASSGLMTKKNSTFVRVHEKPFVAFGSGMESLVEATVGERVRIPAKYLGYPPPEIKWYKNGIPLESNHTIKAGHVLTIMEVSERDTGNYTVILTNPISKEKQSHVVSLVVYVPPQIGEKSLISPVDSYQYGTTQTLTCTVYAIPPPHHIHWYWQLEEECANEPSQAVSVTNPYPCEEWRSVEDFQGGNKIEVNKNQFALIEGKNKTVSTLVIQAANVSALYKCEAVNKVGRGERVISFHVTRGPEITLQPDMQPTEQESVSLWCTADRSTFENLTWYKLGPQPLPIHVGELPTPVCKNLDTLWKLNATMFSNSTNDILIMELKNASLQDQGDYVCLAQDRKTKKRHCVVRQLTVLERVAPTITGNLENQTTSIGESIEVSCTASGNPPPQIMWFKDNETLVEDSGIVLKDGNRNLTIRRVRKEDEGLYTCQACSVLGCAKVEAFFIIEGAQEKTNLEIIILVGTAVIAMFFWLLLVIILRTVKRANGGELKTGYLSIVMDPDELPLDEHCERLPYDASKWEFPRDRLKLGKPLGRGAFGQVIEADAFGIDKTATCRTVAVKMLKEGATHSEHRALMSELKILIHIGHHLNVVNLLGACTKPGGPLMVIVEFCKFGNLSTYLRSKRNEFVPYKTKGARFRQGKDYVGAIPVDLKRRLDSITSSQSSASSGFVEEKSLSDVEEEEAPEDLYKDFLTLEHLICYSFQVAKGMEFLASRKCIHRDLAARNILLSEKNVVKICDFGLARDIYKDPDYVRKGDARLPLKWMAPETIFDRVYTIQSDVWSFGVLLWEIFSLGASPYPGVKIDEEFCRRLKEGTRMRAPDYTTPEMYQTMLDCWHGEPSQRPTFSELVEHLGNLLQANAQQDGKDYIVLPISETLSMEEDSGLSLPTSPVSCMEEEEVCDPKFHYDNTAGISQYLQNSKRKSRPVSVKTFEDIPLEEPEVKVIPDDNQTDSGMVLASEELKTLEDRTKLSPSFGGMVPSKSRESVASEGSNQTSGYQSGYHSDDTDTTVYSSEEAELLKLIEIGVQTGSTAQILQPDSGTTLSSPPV
# Sequence of Tb-labeled inactive PDGFRβ (P09619 33-1106): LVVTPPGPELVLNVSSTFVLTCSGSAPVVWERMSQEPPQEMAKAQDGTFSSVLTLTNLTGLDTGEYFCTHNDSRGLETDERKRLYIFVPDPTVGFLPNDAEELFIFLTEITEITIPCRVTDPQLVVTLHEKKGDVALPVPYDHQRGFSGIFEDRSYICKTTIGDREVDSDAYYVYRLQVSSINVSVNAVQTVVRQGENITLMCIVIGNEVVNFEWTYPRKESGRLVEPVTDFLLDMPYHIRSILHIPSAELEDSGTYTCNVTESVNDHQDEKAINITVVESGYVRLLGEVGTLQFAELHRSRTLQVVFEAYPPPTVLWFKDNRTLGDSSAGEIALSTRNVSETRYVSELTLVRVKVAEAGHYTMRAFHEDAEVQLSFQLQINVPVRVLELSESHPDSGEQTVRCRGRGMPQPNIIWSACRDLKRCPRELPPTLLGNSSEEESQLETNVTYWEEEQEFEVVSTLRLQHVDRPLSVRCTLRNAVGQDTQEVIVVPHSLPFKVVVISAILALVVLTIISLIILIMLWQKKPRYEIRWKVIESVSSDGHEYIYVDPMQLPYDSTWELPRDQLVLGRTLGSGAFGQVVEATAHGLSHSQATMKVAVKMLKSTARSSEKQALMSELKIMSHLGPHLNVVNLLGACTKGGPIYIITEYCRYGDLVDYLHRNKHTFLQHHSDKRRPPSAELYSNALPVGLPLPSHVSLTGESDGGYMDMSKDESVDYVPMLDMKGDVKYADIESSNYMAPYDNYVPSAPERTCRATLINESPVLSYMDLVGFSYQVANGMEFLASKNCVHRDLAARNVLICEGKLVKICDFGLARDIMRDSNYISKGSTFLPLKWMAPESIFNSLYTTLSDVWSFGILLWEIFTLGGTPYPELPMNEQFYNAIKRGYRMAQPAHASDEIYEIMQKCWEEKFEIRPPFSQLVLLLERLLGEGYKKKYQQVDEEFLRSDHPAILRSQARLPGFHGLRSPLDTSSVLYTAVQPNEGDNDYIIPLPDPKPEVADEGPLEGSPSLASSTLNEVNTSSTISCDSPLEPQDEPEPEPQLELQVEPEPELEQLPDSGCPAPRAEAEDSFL
Structure (SMILES),IC50 [1],IC50 [2]
"Cc1ncc(NC(=O)CN2CC(C)(C)C2)cc1NC(=O)c1cnn2cc(-c3cnn(C4CS(=O)(=O)C4)c3)sc12 [Example 262, N-(5-(2-(3,3-dimethylazetidin-1-yl)acetamido)-2-methylpyridin-3-yl)-2-(1-(1,1-dioxidothietan-3-yl)-1H-pyrazol-4-yl)pyrazolo[5,1-b]thiazole-7-carboxamide]",6.1 nM,> 7500 nM
"Cc1ncc(NC(=O)CN2CC(C)(C)C2)cc1NC(=O)c1cnn2cc(-c3cnn(-c4cccnc4)c3)sc12 [Example 289, N-(5-(2-(3,3-dimethylazetidin-1-yl)acetamido)-2-methylpyridin-3-yl)-2-(1-(pyridin-3-yl)-1H-pyrazol-4-yl)pyrazolo[5,1-b]thiazole-7-carboxamide]",7.1 nM,> 7500 nM
"Cc1ncc(NC(=O)CN(C)C2CCOCC2)cc1NC(=O)c1cnn2cc(-c3cnn(CS(C)(=O)=O)c3)sc12 [Example 298, N-(2-methyl-5-(2-(methyl(tetrahydro-2H-pyran-4-yl)amino)acetamido)pyridin-3-yl)-2-(1-((methylsulfonyl)methyl)-1H-pyrazol-4-yl)pyrazolo[5,1-b]thiazole-7-carboxamide]",6.4 nM,> 7500 nM
"Cc1ncc(NC(=O)CN2CC(C)(C)C2)cc1NC(=O)c1cnn2cc(-c3ccc(CO)o3)sc12 [Example 292, N-(5-(2-(3,3-dimethylazetidin-1-yl)acetamido)-2-methylpyridin-3-yl)-2-(5-(hydroxymethyl)furan-2-yl)pyrazolo[5,1-b]thiazole-7-carboxamide]",2.2 nM,> 7500 nM
"COCCn1cc(-c2cn3ncc(C(=O)Nc4cc(NC(=O)CN5CCC6(CC6)C5)cnc4C)c3s2)cn1 [Example 326, N-(5-(2-(5-azaspiro[2.4]heptan-5-yl)acetamido)-2-methylpyridin-3-yl)-2-(1-(2-methoxyethyl)-1H-pyrazol-4-yl)pyrazolo[5,1-b]thiazole-7-carboxamide]",3.7 nM,> 7500 nM
"CNC(=O)c1cc(-c2cn3ncc(C(=O)Nc4cc(NC(=O)CN5CC(C)(C)C5)cnc4C)c3s2)ccn1 [Example 274, N-(5-(2-(3,3-dimethylazetidin-1-yl)acetamido)-2-methylpyridin-3-yl)-2-(2-(methylcarbamoyl)pyridin-4-yl)pyrazolo[5,1-b]thiazole-7-carboxamide]",21.4 nM,> 7500 nM
"Cc1ncc(NC(=O)CN2CC(C)(C)C2)cc1NC(=O)c1cnn2cc(-c3c[nH]c4ccccc34)sc12 [Example 287, N-(5-(2-(3,3-dimethylazetidin-1-yl)acetamido)-2-methylpyridin-3-yl)-2-(1H-indol-3-yl)pyrazolo[5,1-b]thiazole-7-carboxamide]",0.8 nM,1740 nM
"Cc1ncc(NC(=O)CN2CCC3(CCCO3)C2)cc1NC(=O)c1cnn2cc(-c3cnn(C)c3)sc12 (centres unmarked) [Example 21, N-(5-(2-(1-oxa-7-azaspiro[4.4]nonan-7-yl)acetamido)-2-methylpyridin-3-yl)-2-(1-methyl-1H-pyrazol-4-yl)pyrazolo[5,1-b]thiazole-7-carboxamide]",5.7 nM,> 7500 nM
"COCCn1cc(-c2cn3ncc(C(=O)Nc4cc(NC(=O)CN5CCC[C@H]5C)cnc4C)c3s2)cn1 [Example 330, (R)-2-(1-(2-methoxyethyl)-1H-pyrazol-4-yl)-N-(2-methyl-5-(2-(2-methylpyrrolidin-1-yl)acetamido)pyridin-3-yl)pyrazolo[5,1-b]thiazole-7-carboxamide]",9.6 nM,> 7500 nM
"Cc1ncc(NC(=O)CN2CC(C)(C)C2)cc1NC(=O)c1cnn2cc(-c3cnn(CC#N)c3)sc12 [Example 266, 2-(1-(cyanomethyl)-1H-pyrazol-4-yl)-N-(5-(2-(3,3-dimethylazetidin-1-yl)acetamido)-2-methylpyridin-3-yl)pyrazolo[5,1-b]thiazole-7-carboxamide]",11.1 nM,> 7500 nM
"CC[C@H]1CN(CC(=O)Nc2cnc(C)c(NC(=O)c3cnn4cc(-c5cccnc5OC)sc34)c2)CCO1 [Example 311, (S)—N-(5-(2-(2-ethylmorpholino)acetamido)-2-methylpyridin-3-yl)-2-(2-methoxypyridin-3-yl)pyrazolo[5,1-b]thiazole-7-carboxamide]",1.3 nM,> 7500 nM
"Cc1ncc(NC(=O)CN2CC(C)(C)C2)cc1NC(=O)c1cnn2cc(-c3cnn(C4COC4)c3)sc12 [Example 264, N-(5-(2-(3,3-dimethylazetidin-1-yl)acetamido)-2-methylpyridin-3-yl)-2-(1-(oxetan-3-yl)-1H-pyrazol-4-yl)pyrazolo[5,1-b]thiazole-7-carboxamide]",6.1 nM,> 7500 nM
"Cc1ncc(NC(=O)CN2CCCC2(C)C)cc1NC(=O)c1cnn2cc(-n3ncc4cccnc43)sc12 [Example 259, N-(5-(2-(2,2-dimethylpyrrolidin-1-yl)acetamido)-2-methylpyridin-3-yl)-2-(1H-pyrazolo[3,4-b]pyridin-1-yl)pyrazolo[5,1-b]thiazole-7-carboxamide]",2.8 nM,> 7500 nM
"Cc1ncc(NC(=O)OC[C@@H]2CCCN2C)cc1NC(=O)c1cnn2cc(-c3cccc4c3cnn4C)sc12 [Example 257, (S)-(1-methylpyrrolidin-2-yl)methyl (6-methyl-5-(2-(1-methyl-1H-indazol-4-yl)pyrazolo[5,1-b]thiazole-7-carboxamido)pyridin-3-yl)carbamate]",2.6 nM,> 2500 nM
"Cc1ncc(NC(=O)CN2CC(C)(C)C2)cc1NC(=O)c1cnn2cc(-c3cnn(C)c3)sc12 [Example 22, N-(5-(2-(3,3-dimethylazetidin-1-yl)acetamido)-2-methylpyridin-3-yl)-2-(1-methyl-1H-pyrazol-4-yl)pyrazolo[5,1-b]thiazole-7-carboxamide]",8.6 nM,> 7500 nM
"Cc1ncc(NC(=O)CN(C)C2CCOCC2)cc1NC(=O)c1cnn2cc(-c3cnn(C(F)F)c3)sc12 [Example 295, 2-(1-(difluoromethyl)-1H-pyrazol-4-yl)-N-(2-methyl-5-(2-(methyl(tetrahydro-2H-pyran-4-yl)amino)acetamido)pyridin-3-yl)pyrazolo[5,1-b]thiazole-7-carboxamide]",13.5 nM,> 7500 nM
"Cc1ncc(NC(=O)CN2CC(C)(C)C2)cc1NC(=O)c1cnn2cc(-c3cnn(CCO)c3)sc12 [Example 290, N-(5-(2-(3,3-dimethylazetidin-1-yl)acetamido)-2-methylpyridin-3-yl)-2-(1-(2-hydroxyethyl)-1H-pyrazol-4-yl)pyrazolo[5,1-b]thiazole-7-carboxamide]",3.3 nM,> 7500 nM
"COCCn1cc(-c2cn3ncc(C(=O)Nc4cc(NC(=O)CN5CC(C)(C)C5)cnc4C)c3s2)cn1 [Example 261, N-(5-(2-(3,3-dimethylazetidin-1-yl)acetamido)-2-methylpyridin-3-yl)-2-(1-(2-methoxyethyl)-1H-pyrazol-4-yl)pyrazolo[5,1-b]thiazole-7-carboxamide]",4.9 nM,> 7500 nM
"Cc1ncc(NC(=O)CN2CC(C)(C)C2)cc1NC(=O)c1cnn2cc(-c3ccn(S(C)(=O)=O)c3)sc12 [Example 275, N-(5-(2-(3,3-dimethylazetidin-1-yl)acetamido)-2-methylpyridin-3-yl)-2-(1-(methylsulfonyl)-1H-pyrrol-3-yl)pyrazolo[5,1-b]thiazole-7-carboxamide]",2.5 nM,> 7500 nM
